In patent publication US8647824B2, “Microbial reductive dehalogenation of vinyl chloride” (The Board of Trustees of the Leland Stanford Junior …, priority 2004, dated 2014):

Columns and labels:
[1] = system: VC reductive dehalogenase of Dehalococcoides sp. strain VS; test: VC-reduction enzyme assay with Ti(III)-reduced methyl viologen as electron donor, gas chromatography; type: biochemical
Experimental: Enzyme assays. Cells were harvested by centrifugation (20,000 g, 20 min, 4° C.) under strictly anoxic conditions using the anoxic chamber, washed and resuspended in degassed MOPS buffer (20 mM, pH 7.2) supplemented with 2 mM DTE and 0.2 mM titanium(III)NTA (buffer A). The buffer was incubated overnight in the anoxic chamber before addition of reducing agents. Cell-free extracts were obtained by anoxic disruption of cells by French Press treatment (138 MPa; two passages), followed by two centrifugation steps (30,000×g, 15 min, 4° C.).
Assays of VC-reduction were conducted as described previously in 2-ml glass vials under an N2/H2 atmosphere with Ti(III)-reduced methyl viologen as artificial electron donor (Rosner et al.) The protein concentration in the assay varied between 10 and 100 μg/ml. The test was started by addition of gaseous VC to the assay mix (total aqueous volume 0.3 ml), and change in VC and ethene concentrations were followed with time by gas chromatography. Experiments testing for reduction of liquid chlorinated ethenes (PCE, TCE, DCE-isomers) were carried out essentially as described above with the appropriate substitution of the chlorinated ethene. The chlorinated compounds were added from aqueous stock solutions.
Oxygen sensitivity of VC-reducing activity in cell-free extract was investigated in buffer amended with resazurin as redox indicator. Prior to addition of VC, the assay was exposed to air until the resazurin underwent a color-change from colorless to pink. Subsequently, the assay was rendered anoxic again by exchanging the gas phase inside the anoxic chamber followed by addition of Ti(III)NTA (5 mM final concentration). All enzyme assays were carried out at ambient temperature, and given activities are means of at least three independent measurements.
Partial purification of VC reductase. Protein purification was performed at 4° C. in the anoxic chamber. The membrane fraction was obtained by centrifugation of cell-free extract at 100,000×g for 90 min at 4° C. The pellet was resuspended in 1 ml buffer A supplemented with 2 mM 3-[(3-cholamidopropyl)dimethylammonio]-1-propanesulfonic acid (CHAPS), and incubated for 1 h on ice. After subsequent centrifugation (100,000×g, 90 min, 4° C.) the solubilized membrane fraction was diluted with an equal volume of buffer B (50 mM 1,3-Bis[tris(hydroxymethyl)methylamino]propane (Bis-Tris Propane), pH 9.6, 2 mM dithiothreitol, 0.2 mM titanium(III)NTA, 20 mM CHAPS), and loaded on a 1-ml HighTrap Q column (Amersham Pharmacia) equilibrated with buffer C (same as buffer B but with 2 mM CHAPS). VC reductive dehalogenase activity was eluted as a single peak (at 550 to 580 mM NaCl) with 10 ml buffer C followed by a 40-ml linear gradient from 0-700 mM NaCl in buffer C at a flow of 1 ml/min. Fractions containing the highest activity were pooled and mixed with an equal volume of buffer A containing 20 mM CHAPS, and applied to a Superose-6 column equilibrated with the same buffer. Enzyme activity was eluted with buffer A at a flow rate of 0.2 ml/min. The protein concentration of the samples was determined according to Bradford with bovine serum albumin as a standard.

[2] = system: Dehalococcoides ethenogenes strain 195; test: Batch dechlorination, D. ethenogenes strain 195 culture; type: cell-based; conditions: cultures supplied with VC or DCE
From the text: Stock cultures. The Victoria mixed culture, containing strain VS, was maintained in a closed continuously stirred tank reactor (CSTR) as previously described. A VC enrichment of this culture, maintained over 5 years, was also used in these investigations. Liquid cultures of the three other cultures evaluated (Pinellas, KB-1/VC, and Dehalococcoides ethenogenes strain 195) were kept in anaerobic bottles, stored in an anaerobic chamber (10% H2, 10% CO2, 80% N2). The bottles were amended with TCE (1-3 μL neat liquid), VC (250 μL gas), and PCE (1-3 μL neat liquid) being added to each, respectively, approximately every two weeks.
Batch studies. For the experimental portion of this research, two studies were undertaken, one a comparative VC growth study, and the other a comparative growth and substrate utilization study with different chlorinated ethenes. These studies compared the dechlorination abilities of Dehalococcoides ethenogenes strain 195 and the Dehalococcoides-like microorganisms in the three mixed cultures (Victoria, KB-1/VC, and Pinellas).
For the first study, a VC enriched inoculum was first developed for each of the three mixed cultures. Here, bottles (120 mL) were filled with 60 mL of anaerobic media in an anaerobic chamber as previously described, and inoculated with 200 μL of each stock culture. Gaseous VC (99.5%) was added with a gas tight syringe (200 μL). […]

[3] = system: highly enriched culture of strain VS; conditions: previously determined; cited from earlier work
[4] = system: Victoria mixed culture, containing strain VS; conditions: traditional method of cell counting; cited from earlier work
[5] = molecular target: T1, TCE-reductive dehalogenase (TceA) (Dehalococcoides mccartyi, UniProt Q3ZAB8); conditions: TceA of D. ethenogenes 195; cited from earlier work
T1 sequence (Q3ZAB8 43-554): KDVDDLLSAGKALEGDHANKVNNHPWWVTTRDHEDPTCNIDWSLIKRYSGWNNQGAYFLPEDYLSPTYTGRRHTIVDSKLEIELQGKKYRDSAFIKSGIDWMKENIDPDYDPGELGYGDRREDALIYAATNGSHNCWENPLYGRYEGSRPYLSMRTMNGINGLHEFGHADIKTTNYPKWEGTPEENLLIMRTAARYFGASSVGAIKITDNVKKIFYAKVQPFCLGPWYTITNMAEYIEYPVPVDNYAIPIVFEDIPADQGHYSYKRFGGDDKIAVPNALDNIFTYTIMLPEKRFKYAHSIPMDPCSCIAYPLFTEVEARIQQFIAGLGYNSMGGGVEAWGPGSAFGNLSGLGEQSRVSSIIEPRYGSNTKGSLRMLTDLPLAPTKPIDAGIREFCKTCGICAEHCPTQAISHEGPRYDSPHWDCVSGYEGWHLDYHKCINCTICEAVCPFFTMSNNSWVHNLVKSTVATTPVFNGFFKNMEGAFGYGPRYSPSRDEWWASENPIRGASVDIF

Question: With `ClC=C(Cl)Cl` [TCE, trichloroethene] as the compound, how does the “reduction rate relative to reduction rate for cDCE to VC” value ([1]; reduction of TCE to cDCE) read?
Answer: 5%

Question: And the “effect on the reduction rate of VC” value ([1]; saturating concentrations of PCE or TCE present)?
Answer: not affected

Question: Which “dechlorination by D. ethenogenes strain 195” value [2] does the source give for `C=CCl` [VC, vinyl chloride] here?
Answer: did not dechlorinate

Question: What about the “rate of reduction by active protein fractions” value ([1]; fractions after gel filtration, reduced methyl viologen as electron donor) of the same compound?
Answer: 350 nmol min^−1 [mg protein]^−1

Question: What about the “strain VS maximum VC utilization rate” value [3] of the same compound?
Answer: 7.8×10^−10 μmol Cl^− (cell·d)^−1

Question: And the “growth rate determined previously by cell counting” value [4]?
Answer: 0.4 day⁻¹

Question: What about the “VC-reduction rate relative to activity of TCE- and cDCE-reduction” value [5] of the same compound?
Answer: less than 1%
